Reference: patent publication US4839380A, “1-Thiocarbamoylmethylpyrrolidine-2-thione, medical compositions of, and anti-hypoxic and nootropic use thereof” (priority 1988, dated 1989)

Tests used:
mice [1] = assay: Lifespan of mice under acute hypoxic hypoxia with hypercapnia (sealed chamber); format: in vivo, mice (nondescript white male)
Description: (§1) The antihypoxic effect of the compound according to the present invention was studied in comparison with pyracetam on various experimental models of hypoxic states in experiments on mice and rats. The compound according to the present invention and pyracetam were administered intraperitoneally in the form of an aqueous emulsion prepared with Tween-80.
Tests were carried out on a model of an acute hypoxic hypoxia with hypercapnia.
The tests were conducted using 540 nondescript while male mice with a mass of 20-22 g. Each mouse was separately placed into a sealed chamber (with the capacity of 250 ml) 60 minutes after administration of the compound according to the present invention in the doses of 50, 100, 250, 500 and 750 mg/kg. The control animals were issued with an isotonic solution of sodium chloride. The antihypoxic activity was assessed by the lifespan of the mice in the sealed chamber (in minutes).

mice [2] = assay: Acute hypobaric hypoxia: lifespan of mice at the height of 11,000 m; format: in vivo, mice (male, tetrahybrids)
Description: as §1
The studies were carried out on a model of an acute hypobaric hypoxia.
An acute […] hypoxia was modelled in a flow-type barometric chamber at an ambient temperature of 17°-20° C. with absorption of carbon dioxide and water.
The test animals (male mice, tetrahybrids) with a mass of 15-22 g of the same generation were "lifted" (under simulation conditions) at the mean speed of 50 m/sec to the height of 11,000 m at which the lifespan (in minutes) for the same series of experiments was evaluated. Furthermore, the mice were discretely lifted at the same speed to the height of 10,000 m where they stayed for 1 minute and then to the height of 11,000 m, where they again were kept for 1 minute and so on, till their death for the determination of the height "ceiling", The animals' death was adjudicated by the occurrence of an agonal breathing against the background of convulsions. The total number of mice employed in the experiments was 200.
As the comparison preparation pracetam was used. The compound according to the present invention and pyracetam were administered one hour before the "lift".

rats' cerebral cortex = assay: Acute repeating anoxia (asphyxial hypoxia): electrical activity of the cerebral cortex of rats; format: in vivo
Description: The studies were conducted on a model of an acute repeating anoxia.
The studies were carried out in experiments on rats with a mass of 180-200 g with nichrome electrodes in the brain (cerebral) cortex; after tracheostomy the animals were connected to the artificial-breathing apparatus. Anoxia was induced by repeatedly switching-off the breathing for 90, 120, 150 and 180 seconds with 10-minutes' intervals therebetween. Electrocardiogram and electrocorticogram were recorded. 53 rats altogether were used in the experiments. The antihypoxic activity of the compound according to the present invention in comparison with pyracetam was assessed by the following parameters:
I--time till the disappearance of a cortex electrical activity after discontinuation of oxygen supply;
II--time till the appearance of an electrocorticogram after renewal of breathing;
III--total time of electrical "silence" of the cortex
for each of the successive anoxiae.
The results of the experiments were statistically evaluated using Student's T-criterion.

mice [3] = assay: Memory consolidation: conditioned reflex of passive avoidance in a two-chamber unit; format: in vivo, mice (nondescript male white)
Description: The study of the effect on processes of consolidation (fixation) of memory was carried out on 400 nondescript male white mice with a mass of 18-20 g using the procedure of a conditioned reflex of passive avoidance in a two-chamber unit, one of the chambers being darkened. In the bottom of the dark chamber an electrode floor is mounted, to which an electric current (50-60 V) can be applied.
Due to their biological specific features, mice prefer to stay in the dark chamber. At the end of the exposure lasting for 180 seconds of the residence of an animal in the dark chamber which, as a rule, actually takes place, an electric current is applied to the irritating device and a mouse is forced to leave its shelter.
Therefore, after a single-time training a conditioned reflex of passive avoidance is elaborated in mice. The resproduction of the effect which is evaluated by the laten period time (in seconds) of the visit to the dark chamber (or by the time of residence in the light chamber) was effected after 24 hours.
The compound according to the present invention and pyracetam were administered in doses of 200-250 mg/kg (pyracetam also in the dose of 1,000 mg/kg) intraperitoneally right after elaboration of the conditioned reflex.

[4] = Convulsions caused by thiosemicarbazide; format: in vivo, white mice
Excerpt: The interaction of the compound according to the present invention with thiosemicarbazide--a specific antagonist of gamma-aminobutyric acid (GABA) was also studied.
Due to the fact that in functioning of the brain, in particular in processes of learning and memorizing, gammaaminobutyric acid (GABA) plays an important role, the possibility of the presence of a GABA-ergic component in the mechanism of action of the compound according to the present invention was studied. To this end, the ability of the compound according to the present invention to prevent convulsions caused by thiosemicarbazide, which is an inhibitor of an enzyme synthesizing gamma-aminobutyric acid, was studied.
The experiments were carried out on 140 white mice of 18-20 g mass. Thiosemicarbazide was administered hypodermally in the dose of 20 mg/kg. The compound according to the present invention was administered intraperitoneally in the doses of 50, 250 and 500 mg/kg 20 minutes after administration of thiosemicarbazide. For every dose 20 mice were used. The presence of the anticonvulsion activity was determined by the change of the latent period of occurrence of convulsions and by extension of the period of death of the animals. The experiments were carried out in comparison with pyracetam.

[5] = 1st anoxia, 90 seconds, 1.000 mg/kg
[6] = dose 4 times that of the compound of the invention
[7] = 1st anoxia, 90 seconds, 250 mg/kg

SMILES: NC(=O)CN1CCCC1=O [Pyracetam, 1-carbamidomethylpyrrolidone-2, reference compound]
- lifespan of mice under acute hypoxic hypoxia (mice [1]; 100 mg/kg i.p.): 27.4 min
- lifespan of mice under acute hypoxic hypoxia (mice [1]; 250 mg/kg i.p.): 33.5 min
- lifespan of mice under acute hypoxic hypoxia (mice [1]; 500 mg/kg i.p.): 39.6 min
- lifespan of mice under acute hypoxic hypoxia (mice [1]; 750 mg/kg i.p.): 34.4 min
- extension of mice lifespan as compared to the control (mice [1]; 2,000 mg/kg): 60%
- lifespan of mice under acute hypoxic hypoxia (mice [1]; 2000 mg/kg i.p.): 45.0 min
- lifespan of mice under acute hypoxic hypoxia (mice [1]; 2000 mg/kg i.p., listed as pyracetam): 45 min
- lifespan of mice under acute hypoxic hypoxia (mice [1]; column 8, dose printed "100" mg/kg (between 750 and 2000), i.p.): 41.4 min
- lifespan of mice at the height of 11,000 m (mice [2]; 100 mg/kg): inactive
- lifespan of mice at the height of 11,000 m (mice [2]; 250 mg/kg): 6.16 ± 0.72 min
- lifespan of mice at the height of 11,000 m, % (control = 100%) (mice [2]; 250 mg/kg): 101.0 ± 11.8%
- lifespan of mice at the height of 11,000 m (mice [2]; 500 mg/kg): 8.13 ± 2.43 min
- lifespan of mice at the height of 11,000 m, % (control = 100%) (mice [2]; 500 mg/kg): 133.3 ± 39.9%
- Number of animals with recovered electrocorticogram after the 4th anoxia (rats' cerebral cortex; 1,000 mg/kg): 14.3%
- Number of animals with retained electrocorticogram after the 1st anoxia (rats' cerebral cortex; 1,000 mg/kg): 12.5%
- Number of animals with recovered electrocorticogram after the 4th anoxia (rats' cerebral cortex; 1,000 mg/kg, listed as pyracetam): 15%
- I--time till the disappearance of a cortex electrical activity (rats' cerebral cortex; [5]): 76.7 ± 4.8 s
- II--time till the appearance of an electrocorticogram after renewal of breathing (rats' cerebral cortex; [5]): 5.3 ± 0.2 s
- III--total time of electrical "silence" of the cortex (rats' cerebral cortex; [5]): 17.8 ± 4.9 s
- I--time till the disappearance of a cortex electrical activity (rats' cerebral cortex; 2nd anoxia (column 6; 120 seconds), 1.000 mg/kg): 85.8 ± 7.3 s
- II--time till the appearance of an electrocorticogram after renewal of breathing (rats' cerebral cortex; 2nd anoxia (column 7; 120 seconds), 1.000 mg/kg): 21.8 ± 6.9 s
- III--total time of electrical "silence" of the cortex (rats' cerebral cortex; 2nd anoxia (column 8; 120 seconds), 1.000 mg/kg): 53.3 ± 12.0 s
- I--time till the disappearance of a cortex electrical activity (rats' cerebral cortex; 3rd anoxia (column 9; 150 seconds), 1.000 mg/kg): 95.0 ± 16.3 s
- II--time till the appearance of an electrocorticogram after renewal of breathing (rats' cerebral cortex; 3rd anoxia (column 10; 150 seconds), 1.000 mg/kg): 67.6 ± 42.I
- III--total time of electrical "silence" of the cortex (rats' cerebral cortex; 3rd anoxia (column 11; 150 seconds), 1.000 mg/kg): 131.2 ± 53.8 s
- I--time till the disappearance of a cortex electrical activity (rats' cerebral cortex; 4th anoxia (column 12; 180 seconds), 1.000 mg/kg): 79.4 ± 23.8 s
- extension of the latent period of the conditioned reflex of passive avoidance (control = 100%) (mice [3]; 1.000 mg/kg): 33.7%
- effect on the latent period of passive avoidance (mice [3]; doses lower than 1.000 mg/kg): inactive
- effect of extension of the latent period of the reflex of passive avoidance (mice [3]; only in the dose of 1.000 mg/kg, pyracetam, 1,000 mg/kg): the same effect
- Latent period of convulsion occurrence ([4]; 1000 mg/kg): 66.6 (61.0-72.2) min
- Time period after which animals die ([4]; 1000 mg/kg): 79.9 (64-96.8) min
- Latent period of convulsion occurrence ([4]; 2000 mg/kg): 70.6 (65.6-75.6) min
- Time period after which animals die ([4]; 2000 mg/kg): 82 (73.6-90.4) min
- extension of the latent period of occurrence of convulsions as compared to the control [4, 6]: 10%
- extension of the period of death as compared to the control [4, 6]: 17%
- effect on thiosemicarbazide convulsions similar to that of the compound of the invention ([4]; higher doses): pronounced but very slightly

SMILES: NC(=S)CN1CCCC1=S [Compound of the present invention, 1-thiocarbamylmethylpyrrolidine-2-thione]
- lifespan of mice under acute hypoxic hypoxia (mice [1]; 100 mg/kg i.p.): 56.3 min
- lifespan of mice under acute hypoxic hypoxia (mice [1]; 250 mg/kg i.p.): 60.3 min
- lifespan of mice under acute hypoxic hypoxia (mice [1]; 500 mg/kg i.p.): 95.2 min
- extension of mice lifespan as compared to the control (mice [1]; 750 mg/kg): 4 times
- increase of mice lifespan as compared to the control (mice [1]; 750 mg/kg): 324.5%
- lifespan of mice under acute hypoxic hypoxia (mice [1]; 750 mg/kg i.p.): 119.2 min
- minimal effective dose (mice [1]; Mus musculus, ip, read-out: dose beginning with which resistance to acute oxygen insufficiency is enhanced and lifespan extended): 100 mg/kg
- lifespan of mice at the height of 11,000 m (mice [2]; 100 mg/kg): 12.58 ± 8.64 min
- lifespan of mice at the height of 11,000 m, % (control = 100%) (mice [2]; 100 mg/kg): 206.2 ± 59.7%
- lifespan of mice at the height of 11,000 m (mice [2]; 250 mg/kg): 19.97 ± 4.93 min
- lifespan of mice at the height of 11,000 m, % (control = 100%) (mice [2]; 250 mg/kg): 327.4 ± 80.8%
- lifespan of mice at the height of 11,000 m (mice [2]; 500 mg/kg): 30.0 ± 0 min
- lifespan of mice at the height of 11,000 m, % (control = 100%) (mice [2]; 500 mg/kg): 491.8 ± 0.0%
- superiority to pyracetam in effect on the lifespan duration at 11,000 m (mice [2]; versus pyracetam): 3-4 times
- Number of animals with retained electrocorticogram after the 1st anoxia (rats' cerebral cortex; 250 mg/kg): 44.0%
- time of recovery of the functional capacity of the brain (rats' cerebral cortex; 250 mg/kg): considerably reduced
- extension of the time till disappearance of an electrocorticogram (rats' cerebral cortex; 250 mg/kg, especially first and second anoxiae): ~2 times
- I--time till the disappearance of a cortex electrical activity (rats' cerebral cortex; [7]): 84.3 ± 1.3 s
- II--time till the appearance of an electrocorticogram after renewal of breathing (rats' cerebral cortex; [7]): 3.7 ± 1.5 s
- III--total time of electrical "silence" of the cortex (rats' cerebral cortex; [7]): 8.9 ± 3.5 s
- recovery of electrical activity of the brain after the 4th anoxia, effectiveness versus pyracetam (rats' cerebral cortex; versus pyracetam): 7 times
- retention of the electrocorticogram after the first 90-seconds' anoxia, superiority to pyracetam (rats' cerebral cortex; versus pyracetam 1.000 mg/kg): 3 times
- effective dose lower than that of pyracetam (mice [3]; 200 mg/kg versus pyracetam 1.000 mg/kg): 5 times
- minimal effective dose (mice [3]; Mus musculus, ip, 24 h, read-out: effective dose (memory consolidation)): 200 mg/kg
- duration of the latent period of the reflex of passive avoidance (mice [3]; ip, 200 mg/kg, 24 h): 136.2 ± 6.6 s
- efficiency of the positive influence upon dose increasing (mice [3]; up to 500 mg/kg): does not grow
- Latent period of convulsion occurrence ([4]; 50 mg/kg): 59 (51.5-66.5) min
- Time period after which animals die ([4]; 50 mg/kg): 76 (64-88) min
- Latent period of convulsion occurrence ([4]; 250 mg/kg): 82.6 (76.I-89.I) min
- Time period after which animals die ([4]; 250 mg/kg): 100.8 min
- Latent period of convulsion occurrence ([4]; 500 mg/kg): 80 (75.6-86.4) min
- Time period after which animals die ([4]; 500 mg/kg): 105 (95-115) min
- extension of the latent period of occurrence of convulsions as compared to the control ([4]; 250 and 500 mg/kg i.p.): 25-30%
- extension of the period of death occurrence as compared to the control ([4]; 250 and 500 mg/kg i.p.): 45-50%
